How the values were obtained:
[1] = test system: human neuroblastoma cell line GOTO; assay: Activity on neuroblastoma cell line GOTO (cell number, number and length of neurites); assay type: cell-based
How it was run: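 GOTO cells were cultured 1–2 days at 37 °C, 5% CO2, then switched to serum-free RPMI/MEM (1:1) with compounds in PBS at various concentrations for 24 h. Living cells were counted by erythrosine exclusion (3–6 dishes); neurite number and length per cell were measured from photographs.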

[2] = test system: mouse neuroblastoma cell line neuro-2a; assay: Activity on cell line neuro-2a (simple method); assay type: cell-based
Experimental: The biological activities in vitro of the compounds of formula (I) on cells of the nervous system were tested. The cells tested were human neuroblastoma cell line GOTO [see Sekiguchi, M., Oota, T., Sakakibara, K., Inui, N. & Fujii, G., Japan. J. Exp. Med., 49, 67-83 (1979)], and neuroblastoma cell line NB-1 [see Miyake, S., Shimo, Y., Kitamura, T., Nojyo, Y., Nakamura, T., Imkashuku, S. and Abe, T., The Autonomic Nervous System, 10, 115-120 (1973)], and mouse neuroblastoma cell line neuro-2a (Dainippon Pharmaceutical Co., Ltd.) which have been established as the cells of the nervous system. The above neuve cells were grown in an incubator at 37° C. in the presence of 5% carbon dioxide gas exponentially, and then cultivated for a certain period of time together with the compounds of formula (I). […]
(§1) As a simple method of evaluation, the number of cells have neurites with a length equal to, or larger than, the long diameter of the cell was divided by the total number of cells.

[3] = test system: mouse neuroblastoma cell line neuro-2a; assay: Activity on neuro-2a, cells with outgrown neurites; assay type: cell-based
How it was run: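 Mouse neuro-2a cells in DMEM with FCS exposed to compounds for 24 h (up to 6 concentrations, triplicate runs), glutaraldehyde-fixed and methylene blue-stained. Proportion of cells bearing a neurite at least twice the cell's long diameter counted microscopically over ≥200 cells.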

mice = assay: Acute toxicity, mouse; assay type: in vivo; settings: 24 hours
Experimental: (§2) The acute toxicity of the compounds of the invention was examined by the following method.
(§3) Male ddy-strain 5-week old mice and male Wistar-strain 8 week old rats, five per group, were used as experimental animals. Each of the compounds was dissolved in saline and administered perorally, and the toxicity of the compound was assessed 24 hours after the administration.

Acute toxicity, rat = assay type: in vivo; settings: in vivo, po, Table 7, p.o., read-out: Presumed LD50
Experimental: as §2, §3

rats = assay: Acute toxicity, rat; assay type: in vivo; settings: Table 7, 1700 mg/kg p.o., 24 hours
Experimental: as §2, §3

[4] = test system: human neuroblastoma cell line GOTO; assay: Activity on cell line GOTO (simple method); assay type: cell-based; settings: 10 μg/ml, control 8.4
Experimental: The biological activities in vitro of the compounds of formula (I) on cells of the nervous system were tested. The cells tested were human neuroblastoma cell line GOTO [see Sekiguchi, M., Oota, T., Sakakibara, K., Inui, N. & Fujii, G., Japan. J. Exp. Med., 49, 67-83 (1979)], and neuroblastoma cell line NB-1 [see Miyake, S., Shimo, Y., Kitamura, T., Nojyo, Y., Nakamura, T., Imkashuku, S. and Abe, T., The Autonomic Nervous System, 10, 115-120 (1973)], and mouse neuroblastoma cell line neuro-2a (Dainippon Pharmaceutical Co., Ltd.) which have been established as the cells of the nervous system. The above neuve cells were grown in an incubator at 37° C. in the presence of 5% carbon dioxide gas exponentially, and then cultivated for a certain period of time together with the compounds of formula (I).
A culture medium [composed of 45% of RPMI 1640 medium, 45% modified Eagle's medium (MEM) and 10% of fetal calf serum (FCS) and containing penicillin G sodium (100 units/ml) and streptomycin sulfate (100 microgram/ml)] containing neurobalstoma cell line GOTO in the logarithmic growth period was poured in an amount of 2 ml each into polystyrene dishes (35 mm; made by Corning Co.) so that the cell concentration was 2 to 6×10^4 cells per dish, and the cells were cultured for 1 to 2 days in a carbon dioxide gas incubator containing 5% of carbon dioxide gas in air at 37° C. Then, the culture fluid was removed, and 2 ml of a fresh serum-free culture fluid (consisting of 50% of RPMI medium and 50% of MEM medium and containing penicillin G sodium and streptomycin sulfate in the same amounts as above) was added. At the same time, a presterilized PBS solution (phosphate buffered saline) of each of the test compounds in various concentrations was added to each of the dishes. After culturing for 24 hours, the number of living cells was counted. Furthermore, the culture was photographed, and from the photos, the number and length of neurites per cell were measured. The numer of living cells was counted for 3 to 6 dishes by resistance to staining with erythrosine dye. The number and length of the neurites were measured with regard to 6 photos (more than 200 cells per photo).
as §1

[5] = Table 1, Run No. 6 by footnote, 1 μg/ml, control 42.48 ± 19.64, all *P <0.01
[6] = Table 1, second control group (Run No. 6 by footnote), 1 μg/ml, control 1.79 ± 0.80
[7] = Table 2 neuro-2a Run No. 2, 1 μg/ml, control 7.9

CCN1Cc2nc(N3CCNCC3)ncc2C1=O [Compound 616]
Length of neurites (mean ± S.D.) [1, 5]: 56.68 ± 23.36 μm/cell
Number of neurites/cell (mean ± S.D.) ([1]; Table 1, Run No. 6 by footnote, 10 μg/ml, control 1.79 ± 0.80): 2.13 ± 0.91 neurites/cell
Length of neurites (mean ± S.D.) ([1]; Table 1, Run No. 6 by footnote, 10 μg/ml, control 42.48 ± 19.64, all *P <0.01): 57.96 ± 27.96 μm/cell
Number of neurites/cell (mean ± S.D.) [1, 6]: 2.04 ± 0.91 neurites/cell
Average of the proportions [2, 7]: 15.79%
Average of the proportions ([2]; Table 2 neuro-2a Run No. 2, 10 μg/ml, control 7.9): 18.40%
Cells having neurites with a length at least twice the long diameter of cell/total number of cells ([3]; Table 3 Run No. 6, 0.3 mM, control 4.4 ± 0.9): 10.6 ± 1.5%
Cells having neurites with a length at least twice the long diameter of cell/total number of cells ([3]; Table 3 Run No. 6, 1 mM, control 4.4 ± 0.9): 10.3 ± 1.4%
Number of dead animals/number of test animals (mice; Table 7, 1000 mg/kg p.o.): 0/5
Number of dead animals/number of test animals (mice; Table 7, 1700 mg/kg p.o.): 0/5
Number of dead animals/number of test animals (mice; Table 7, 3000 mg/kg p.o.): 4/5
LD50 at 24 h (Acute toxicity, rat): > 1700 mg/kg
Number of dead animals/number of test animals (rats): 0/5

CC(C)Nc1ncccn1.O=P(O)(O)O [Isaxonine, 2-isopropylaminopyrimidine ortho-phosphate, reference compound]
Length of neurites (mean ± S.D.) [1, 5]: 58.20 ± 25.40 μm/cell
Length of neurites (mean ± S.D.) ([1]; Table 1, Run No. 7 by footnote, 1 μg/ml, control 42.20 ± 17.75, all *P <0.01): 57.06 ± 28.78 μm/cell
Number of neurites/cell (mean ± S.D.) ([1]; Table 1, last control group (Run No. 7 by footnote), 1 μg/ml, control 1.77 ± 0.68): 1.91 ± 0.56 neurites/cell
Number of neurites/cell (mean ± S.D.) [1, 6]: 2.00 ± 0.86 neurites/cell
Number of neurites/cell (mean ± S.D.) ([1]; Table 1 Run No. 1, 1 μg/ml, control 2.09 ± 0.61): 2.18 ± 0.77 neurites/cell
Number of cells (mean ± S.E.) ([1]; Table 1 Run No. 1, 1 μg/ml, control 14.34 ± 0.72): 17.63 ± 2.80 × 10^4 /dish
Length of neurites (mean ± S.D.) ([1]; Table 1 Run No. 1, 1 μg/ml, control 70.10 ± 43.03): 87.86 ± 56.03 μm/cell
Number of neurites/cell (mean ± S.D.) ([1]; Table 1 Run No. 1, 10 μg/ml, control 2.09 ± 0.61): 1.99 ± 0.51 neurites/cell
Number of cells (mean ± S.E.) ([1]; Table 1 Run No. 1, 10 μg/ml, control 14.34 ± 0.72): 19.18 ± 0.67 × 10^4 /dish
Length of neurites (mean ± S.D.) ([1]; Table 1 Run No. 1, 10 μg/ml, control 70.10 ± 43.03): 82.87 ± 50.70 μm/cell
Number of neurites/cell (mean ± S.D.) ([1]; Table 1 Run No. 2, 1 μg/ml, control 2.06 ± 0.60): 2.09 ± 0.66 neurites/cell
Number of cells (mean ± S.E.) ([1]; Table 1 Run No. 2, 1 μg/ml, control 12.30 ± 1.48): 14.89 ± 1.35 × 10^4 /dish
Length of neurites (mean ± S.D.) ([1]; Table 1 Run No. 2, 1 μg/ml, control 55.00 ± 37.26): 66.01 ± 40.21 μm/cell
Number of neurites/cell (mean ± S.D.) ([1]; Table 1 Run No. 3, 1 μg/ml, control 1.94 ± 0.69, all *P <0.01): 2.31 ± 0.86 neurites/cell
Number of cells ([1]; Table 1 Run No. 3, 1 μg/ml, control 3.17): 4.72 × 10^4 /dish
Length of neurites (mean ± S.D.) ([1]; Table 1 Run No. 3, 1 μg/ml, control 45.13 ± 22.71, all *P <0.01): 68.29 ± 24.83 μm/cell
Number of neurites/cell (mean ± S.D.) ([1]; Table 1 Run No. 4, 1 μg/ml, control 1.98 ± 0.74): 1.99 ± 0.70 neurites/cell
Number of cells (mean ± S.E.) ([1]; Table 1 Run No. 4, 1 μg/ml, control 5.48 ± 1.38): 9.44 ± 1.95 × 10^4 /dish
Length of neurites (mean ± S.D.) ([1]; Table 1 Run No. 4, 1 μg/ml, control 54.15 ± 33.64): 71.25 ± 40.39 μm/cell
Average of the proportions ([4]; Table 2 GOTO Run No. 1): 12.58%
Average of the proportions ([4]; Table 2 GOTO Run No. 2): 12.58%
Average of the proportions ([2]; Table 2 neuro-2a Run No. 1, 1 μg/ml, control 7.9): 12.15%
Average of the proportions [2, 7]: 12.15%
Average of the proportions ([2]; Table 2 neuro-2a Run No. 3, 0.1 μg/ml, control 2.0): 9.1%
Average of the proportions ([2]; Table 2 neuro-2a Run No. 3, 1 μg/ml, control 2.0): 9.1%
Cells having neurites with a length at least twice the long diameter of cell/total number of cells ([3]; Table 3 Run No. 3, 0.03 mM, control 3.9 ± 0.3): 4.7 ± 0.4%
Cells having neurites with a length at least twice the long diameter of cell/total number of cells ([3]; Table 3 Run No. 3, 0.1 mM, control 3.9 ± 0.3): 6.8 ± 1.2%
Cells having neurites with a length at least twice the long diameter of cell/total number of cells ([3]; Table 3 Run No. 3, 1 mM, control 3.9 ± 0.3): 7.0 ± 0.8%
Cells having neurites with a length at least twice the long diameter of cell/total number of cells ([3]; Table 3 Run No. 4, 1 mM, control 3.1 ± 0.2): 5.7 ± 1.2%
Cells having neurites with a length at least twice the long diameter of cell/total number of cells ([3]; Table 3 Run No. 4, 3 mM, control 3.1 ± 0.2): 13.6 ± 2.3%
Cells having neurites with a length at least twice the long diameter of cell/total number of cells ([3]; Table 3 Run No. 4, 10 mM, control 3.1 ± 0.2): 34.4 ± 0.6%
Cells having neurites with a length at least twice the long diameter of cell/total number of cells ([3]; Table 3 Run No. 6, 10 mM, control 4.4 ± 0.9): 29.9 ± 0.9%
Cells having neurites with a length at least twice the long diameter of cell/total number of cells ([3]; Table 3 Run No. 7, 10 mM, control 2.5 ± 0.7): 24.9 ± 1.0%
Cells having neurites with a length at least twice the long diameter of cell/total number of cells ([3]; Table 3 Run No. 8, 10 mM, control 3.7 ± 0.4): 28.2 ± 1.6%
Cells having neurites with a length at least twice the long diameter of cell/total number of cells ([3]; Table 3 second Run No. 5, 1 mM, control 4.5 ± 0.3): 6.8 ± 2.2%
Cells having neurites with a length at least twice the long diameter of cell/total number of cells ([3]; Table 3 second Run No. 5, 10 mM, control 4.5 ± 0.3): 27.0 ± 3.4%

CN1Cc2nc(N3CCNCC3)ncc2C1=O [Compound 602]
Cells having neurites with a length at least twice the long diameter of cell/total number of cells ([3]; Table 3 Run No. 6, 0.1 mM, control 4.4 ± 0.9): 6.2 ± 0.2%
Cells having neurites with a length at least twice the long diameter of cell/total number of cells ([3]; Table 3 Run No. 6, 3 mM, control 4.4 ± 0.9): 10.0 ± 0.9%
Number of dead animals/number of test animals (mice; Table 7, 1000 mg/kg p.o.): 0/5
Number of dead animals/number of test animals (mice; Table 7, 1700 mg/kg p.o.): 0/5
Number of dead animals/number of test animals (mice; Table 7, 3000 mg/kg p.o.): 3/5
LD50 at 24 h (Acute toxicity, rat): > 1700 mg/kg
Number of dead animals/number of test animals (rats): 0/5

— patent US4959368A, “Therapeutic agent for neurological diseases” (Mitsui Petrochemical Industries Ltd., priority 1986, dated 1990)
